Reference: patent US6673791B2, “Non-nucleoside reverse transcriptase inhibitors” (Boehringer Ingelheim (Canada) Ltd., priority 2001, dated 2004)

molecular target: T1, K103N/Y181C double mutant RT (HIV-1 RT) (Human immunodeficiency virus type 1 group M subtype B, UniProt P03366, K702N/Y780C); test: biochemical; settings: not given
T1 construct: mutations that occur in the reverse transcriptase segment of the pol gene
Text: (§1) Based upon testing of these compounds, as described below, it is known that they inhibit the RNA-dependent DNA polymerase activity of HIV-1 RT. […] Utilising the Reverse Transcriptase (RT) Assay described below, compounds can be tested for their ability to inhibit the RNA-dependent DNA polymerase activity of HIV-1 RT. Certain specific compounds described in the Examples which appear below, were so tested. The results of this testing appear in Table 4 as IC50 (nM) and Table 5 as EC50 (nM).
(§2) Reverse TranscriptASE (RT) Assays
(§3) The assays are as described in WO 01/96338A1, the contents of which are hereby incorporated herein. The results are listed in Tables 8 as IC50(nM) and EC50(nM).

First: CCN1c2ncc(CCOc3ccc(CC(C)C(=O)O)c4ccccc34)cc2C(=O)N(C)c2ccc(Cl)nc21 (stereo not drawn) [Entry 1044]
Second: CCN1c2ncc(CCOc3ccc(CC(=O)NN)c4ccccc34)cc2C(=O)N(C)c2ccc(Cl)nc21 [Entry 1016]
The IC50 of the first is higher: 100 to 1000 nM for the first, under 100 nM for the second.

`CCN1c2ncc(CCOc3ccc(CCC(=O)O)c4ccccc34)cc2C(=O)N(C)c2ccc(F)nc21` [Entry 1023] and `CCN1c2ncc(CCOc3ccc(CCC(=O)O)c4ccccc34)cc2C(=O)Nc2c(C)cc(Cl)nc21` [Entry 1025] fall in the same range of IC50: 100 to 1000 nM for the first, 100 to 1000 nM for the second.

`CCN1c2ncc(CCOc3ccc(C(=O)O)c4c3CCCC4)cc2C(=O)N(C)c2ccc(OC)nc21` [Entry 5005] and `CCN1c2ncc(CCOc3ccc(CCC(=O)O)c4c3CCCC4)cc2C(=O)N(C)c2cccnc21` [Entry 5009] fall in the same range of IC50: 100 to 1000 nM for the first, 100 to 1000 nM for the second.

`CCNC(=O)N1CCc2c(OCCc3cnc4c(c3)C(=O)N(C)c3cccnc3N4CC)ccc(C(=O)O)c2C1` [Entry 7006] gave an IC50 of 100 to 1000 nM.

molecular target: T2, V106A mutant RT (HIV-1 RT) (Human immunodeficiency virus type 1 group M subtype B, UniProt P03366, V705A); test: biochemical; settings: IC50 V106A (nM)
T2 construct: mutations that occur in the reverse transcriptase segment of the pol gene
Text: as §1, §2, §3

Compared with `CCN1c2ncc(CCOc3ccc(CC(C)C(=O)O)c4ccccc34)cc2C(=O)N(C)c2ccc(Cl)nc21` (stereo not drawn) [Entry 1044], `CCN1c2ncc(CCOc3ccc(CC(=O)NN)c4ccccc34)cc2C(=O)N(C)c2ccc(Cl)nc21` [Entry 1016] is lower in IC50: over 1000 nM for the first, 100 to 1000 nM for the second.

Compared with `CCN1c2ncc(CCOc3ccc(CCC(=O)O)c4ccccc34)cc2C(=O)N(C)c2ccc(F)nc21` [Entry 1023], `CCN1c2ncc(CCOc3ccc(CCC(=O)O)c4ccccc34)cc2C(=O)Nc2c(C)cc(Cl)nc21` [Entry 1025] is lower in IC50: over 1000 nM for the first, 100 to 1000 nM for the second.

`CCN1c2ncc(CCOc3ccc(C(=O)O)c4c3CCCC4)cc2C(=O)N(C)c2ccc(OC)nc21` [Entry 5005] and `CCN1c2ncc(CCOc3ccc(CCC(=O)O)c4c3CCCC4)cc2C(=O)N(C)c2cccnc21` [Entry 5009] cannot be ordered by IC50: over 1000 nM for the first, over 1000 nM for the second.

Work on `CCNC(=O)N1CCc2c(OCCc3cnc4c(c3)C(=O)N(C)c3cccnc3N4CC)ccc(C(=O)O)c2C1` [Entry 7006] yielded an IC50 of 100 to 1000 nM.

molecular target: T3, WT RT (HIV-1 RT) (Human immunodeficiency virus type 1 group M subtype B, UniProt P03366); test: biochemical; settings: not given
T3 construct: mutations that occur in the reverse transcriptase segment of the pol gene
Text: as §1, §2, §3

`CCN1c2ncc(CCOc3ccc(CC(C)C(=O)O)c4ccccc34)cc2C(=O)N(C)c2ccc(Cl)nc21` (stereo not drawn) [Entry 1044] and `CCN1c2ncc(CCOc3ccc(CC(=O)NN)c4ccccc34)cc2C(=O)N(C)c2ccc(Cl)nc21` [Entry 1016] cannot be ordered by IC50: under 100 nM for the first, under 100 nM for the second.

`CCN1c2ncc(CCOc3ccc(CCC(=O)O)c4ccccc34)cc2C(=O)N(C)c2ccc(F)nc21` [Entry 1023] and `CCN1c2ncc(CCOc3ccc(CCC(=O)O)c4ccccc34)cc2C(=O)Nc2c(C)cc(Cl)nc21` [Entry 1025] cannot be ordered by IC50: under 100 nM for the first, under 100 nM for the second.

`CCN1c2ncc(CCOc3ccc(C(=O)O)c4c3CCCC4)cc2C(=O)N(C)c2ccc(OC)nc21` [Entry 5005] and `CCN1c2ncc(CCOc3ccc(CCC(=O)O)c4c3CCCC4)cc2C(=O)N(C)c2cccnc21` [Entry 5009] cannot be ordered by IC50: under 100 nM for the first, under 100 nM for the second.

In the case of `CCNC(=O)N1CCc2c(OCCc3cnc4c(c3)C(=O)N(C)c3cccnc3N4CC)ccc(C(=O)O)c2C1` [Entry 7006], the IC50 is reported as under 100 nM.

molecular target: T4, Y188L mutant RT (HIV-1 RT) (Human immunodeficiency virus type 1 group M subtype B, UniProt P03366, Y787L); test: biochemical; settings: IC50 Y188L (nM)
T4 construct: mutations that occur in the reverse transcriptase segment of the pol gene
Text: as §1, §2, §3

Compared with `CCN1c2ncc(CCOc3ccc(CC(C)C(=O)O)c4ccccc34)cc2C(=O)N(C)c2ccc(Cl)nc21` (stereo not drawn) [Entry 1044], `CCN1c2ncc(CCOc3ccc(CC(=O)NN)c4ccccc34)cc2C(=O)N(C)c2ccc(Cl)nc21` [Entry 1016] is lower in IC50: over 1000 nM for the first, 100 to 1000 nM for the second. The second is the more potent here.

`CCN1c2ncc(CCOc3ccc(CCC(=O)O)c4ccccc34)cc2C(=O)N(C)c2ccc(F)nc21` [Entry 1023] and `CCN1c2ncc(CCOc3ccc(CCC(=O)O)c4ccccc34)cc2C(=O)Nc2c(C)cc(Cl)nc21` [Entry 1025] cannot be ordered by IC50: over 1000 nM for the first, over 1000 nM for the second.

First: CCN1c2ncc(CCOc3ccc(C(=O)O)c4c3CCCC4)cc2C(=O)N(C)c2ccc(OC)nc21 [Entry 5005]
Second: CCN1c2ncc(CCOc3ccc(CCC(=O)O)c4c3CCCC4)cc2C(=O)N(C)c2cccnc21 [Entry 5009]
The IC50 of the first is lower: 100 to 1000 nM for the first, over 1000 nM for the second.

For `CCNC(=O)N1CCc2c(OCCc3cnc4c(c3)C(=O)N(C)c3cccnc3N4CC)ccc(C(=O)O)c2C1` [Entry 7006], the IC50 was over 1000 nM.

system: WT RT (HIV-1 wild type strain); test: EC50 assay, WT RT strain; assay type: cell-based; settings: Human immunodeficiency virus 1, read-out: EC50 WT RT (nM)
Text: as §2, §3

`CCN1c2ncc(CCOc3ccc(CC(C)C(=O)O)c4ccccc34)cc2C(=O)N(C)c2ccc(Cl)nc21` (stereo not drawn) [Entry 1044] and `CCN1c2ncc(CCOc3ccc(CC(=O)NN)c4ccccc34)cc2C(=O)N(C)c2ccc(Cl)nc21` [Entry 1016] cannot be ordered by EC50: under 100 nM for the first, under 100 nM for the second.

`CCN1c2ncc(CCOc3ccc(CCC(=O)O)c4ccccc34)cc2C(=O)N(C)c2ccc(F)nc21` [Entry 1023] and `CCN1c2ncc(CCOc3ccc(CCC(=O)O)c4ccccc34)cc2C(=O)Nc2c(C)cc(Cl)nc21` [Entry 1025] cannot be ordered by EC50: under 100 nM for the first, under 100 nM for the second.

`CCN1c2ncc(CCOc3ccc(C(=O)O)c4c3CCCC4)cc2C(=O)N(C)c2ccc(OC)nc21` [Entry 5005] and `CCN1c2ncc(CCOc3ccc(CCC(=O)O)c4c3CCCC4)cc2C(=O)N(C)c2cccnc21` [Entry 5009] cannot be ordered by EC50: under 100 nM for the first, under 100 nM for the second.

`CCNC(=O)N1CCc2c(OCCc3cnc4c(c3)C(=O)N(C)c3cccnc3N4CC)ccc(C(=O)O)c2C1` [Entry 7006] was tested, and the EC50 was 100 to 1000 nM.

system: K103N/Y181C (HIV-1 double mutant strain); test: EC50 assay, K103N/Y181C strain; assay type: cell-based; settings: Human immunodeficiency virus 1, read-out: EC50 K103N/Y181C (nM), K103N/Y181C double mutant
Text: as §2, §3

`CCN1c2ncc(CCOc3ccc(CC(C)C(=O)O)c4ccccc34)cc2C(=O)N(C)c2ccc(Cl)nc21` (stereo not drawn) [Entry 1044] and `CCN1c2ncc(CCOc3ccc(CC(=O)NN)c4ccccc34)cc2C(=O)N(C)c2ccc(Cl)nc21` [Entry 1016] cannot be ordered by EC50: under 100 nM for the first, under 100 nM for the second.

Compared with `CCN1c2ncc(CCOc3ccc(CCC(=O)O)c4ccccc34)cc2C(=O)N(C)c2ccc(F)nc21` [Entry 1023], `CCN1c2ncc(CCOc3ccc(CCC(=O)O)c4ccccc34)cc2C(=O)Nc2c(C)cc(Cl)nc21` [Entry 1025] is higher in EC50: under 100 nM for the first, 100 to 1000 nM for the second.

`CCN1c2ncc(CCOc3ccc(C(=O)O)c4c3CCCC4)cc2C(=O)N(C)c2ccc(OC)nc21` [Entry 5005] and `CCN1c2ncc(CCOc3ccc(CCC(=O)O)c4c3CCCC4)cc2C(=O)N(C)c2cccnc21` [Entry 5009] cannot be ordered by EC50: under 100 nM for the first, under 100 nM for the second.

Compound `CCNC(=O)N1CCc2c(OCCc3cnc4c(c3)C(=O)N(C)c3cccnc3N4CC)ccc(C(=O)O)c2C1` [Entry 7006] has an EC50 of over 1000 nM.
